Test results published in ChEMBL document CHEMBL1201862, “PubChem BioAssay data set” (2004).
Values belong to the compound of their own block, whether it stands above or below them. Activity calls are given as the source filed them.

Assays:
[1] = tested on: INS1; assay: beta cell apoptosis inhibitors, cytokine rescue, dose response, luminescence, retest (AID 449756); type: functional, cell-based; conditions: Rattus norvegicus;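 also: cell death triggered by IL-1 beta plus TNF-alpha plus IFN-gamma mixture; protective hits raise ATP signal compared with cytokine alone wells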
[2] = molecular target: T1, Carboxy-terminal domain RNA polymerase II polypeptide A small phosphatase 1 (Homo sapiens, UniProt Q9GZU7); assay: inhibitors of CTDSP1, concentration-response testing, biochemical assay, absorbance-based, actives from ultra-high-throughput screening (AID 540297); type: functional
T1 sequence (Q9GZU7 whole entry): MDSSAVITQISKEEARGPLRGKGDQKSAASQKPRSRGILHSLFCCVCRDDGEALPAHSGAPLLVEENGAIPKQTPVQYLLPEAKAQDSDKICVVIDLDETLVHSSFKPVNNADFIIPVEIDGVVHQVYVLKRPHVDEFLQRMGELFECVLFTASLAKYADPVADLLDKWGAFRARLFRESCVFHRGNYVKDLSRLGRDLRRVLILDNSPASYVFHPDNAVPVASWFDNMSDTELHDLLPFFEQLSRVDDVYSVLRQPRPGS

[3] = molecular target: Protein Wnt-3a (Mus musculus, UniProt P27467); assay: Wnt3a-driven reporter signaling inhibition, dose response, selectivity assay for Gli-SUFU antagonist project, Wnt-LIGHT cells, luminescence (AID 651570); type: functional; conditions: read-out: IC50_Mean;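 also: Wnt-LIGHT reporter cells stimulated with conditioned medium from Wnt3a-producing cells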
[4] = molecular target: Dual specificity tyrosine-phosphorylation-regulated kinase 1A (Rattus norvegicus, UniProt Q63470); type: biochemical, Homo sapiens
[5] = THP-1 cell cytotoxicity, dose response, cytotoxicity control for Vif-APOBEC3G degradation inhibitor project, THP-1 cells (AID 1117359); type: functional; conditions: Human immunodeficiency virus 1, THP-1
[6] = molecular target: Mitogen-activated protein kinase 10 (Homo sapiens, UniProt P53779); assay: Dose response biochemical screening assay for inhibitors of c-Jun N-Terminal Kinase 3 (JNK3). [Related pubchem assays: 746 ]
[7] = tested on: HEK293; assay: cells; type: functional, cell-based; conditions: Homo sapiens
[8] = molecular target: T2, Nuclear receptor subfamily 0 group B member 1 (Homo sapiens, UniProt P51843); assay: Luminescence-based cell-based high throughput dose response assay for inhibitors of the orphan nuclear receptor subfamily 0, group B, member 1 (DAX1; NR0B1). [Related pubchem assays (depositor defined):AID504766, AID504790]; type: functional
T2 sequence (P51843 whole entry): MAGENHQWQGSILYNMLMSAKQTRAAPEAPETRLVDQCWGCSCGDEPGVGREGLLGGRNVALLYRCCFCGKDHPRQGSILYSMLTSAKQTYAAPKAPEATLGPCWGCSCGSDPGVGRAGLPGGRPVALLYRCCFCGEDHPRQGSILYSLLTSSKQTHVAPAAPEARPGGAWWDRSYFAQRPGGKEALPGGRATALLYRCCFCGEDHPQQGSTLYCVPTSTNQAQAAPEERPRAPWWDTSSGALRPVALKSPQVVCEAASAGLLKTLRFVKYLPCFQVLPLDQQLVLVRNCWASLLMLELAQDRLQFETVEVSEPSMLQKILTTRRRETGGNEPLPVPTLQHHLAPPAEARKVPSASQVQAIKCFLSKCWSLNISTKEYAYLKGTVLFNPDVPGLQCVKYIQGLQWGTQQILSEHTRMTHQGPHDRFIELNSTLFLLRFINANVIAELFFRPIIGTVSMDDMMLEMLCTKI

[9] = molecular target: T3, Hepatocyte nuclear factor 4-alpha (Homo sapiens, UniProt P41235); type: functional, cell-based;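 also: biochemical luminescence-based dose-response counterscreen measuring inhibition of HNF4 dimerization, run alongside a screen for blockers of ABHD5–perilipin-5 interaction; split luciferase complementation of HNF4 fusion proteins in cell lysate measuring dimerization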
T3 sequence (P41235 whole entry): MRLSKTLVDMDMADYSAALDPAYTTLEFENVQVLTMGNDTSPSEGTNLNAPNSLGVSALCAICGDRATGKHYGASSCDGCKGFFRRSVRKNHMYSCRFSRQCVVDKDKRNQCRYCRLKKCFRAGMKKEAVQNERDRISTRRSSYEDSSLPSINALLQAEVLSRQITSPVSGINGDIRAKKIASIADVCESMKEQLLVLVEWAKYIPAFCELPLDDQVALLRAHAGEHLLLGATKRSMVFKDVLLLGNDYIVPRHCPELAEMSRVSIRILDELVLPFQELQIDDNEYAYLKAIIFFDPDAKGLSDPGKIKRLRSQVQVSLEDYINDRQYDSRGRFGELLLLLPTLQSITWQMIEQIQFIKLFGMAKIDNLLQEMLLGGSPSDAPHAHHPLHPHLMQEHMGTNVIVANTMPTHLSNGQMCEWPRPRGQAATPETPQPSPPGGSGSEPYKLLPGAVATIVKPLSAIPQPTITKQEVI

[10] = molecular target: Large T antigen (Simian virus 40, UniProt P03070); type: functional, Betapolyomavirus macacae;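 also: Confirmatory-stage PubChem screen for compounds that inhibit SV40 T antigen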
[11] = molecular target: T4, Rac GTPase-activating protein 1 (Homo sapiens, UniProt Q9H0H5); assay: MgcRacGAP GTPase-activating activity inhibitors, confirmation, biochemical, ADP Hunter fluorescence, primary and confirmatory (AID 624330); type: functional
T4 sequence (Q9H0H5 whole entry): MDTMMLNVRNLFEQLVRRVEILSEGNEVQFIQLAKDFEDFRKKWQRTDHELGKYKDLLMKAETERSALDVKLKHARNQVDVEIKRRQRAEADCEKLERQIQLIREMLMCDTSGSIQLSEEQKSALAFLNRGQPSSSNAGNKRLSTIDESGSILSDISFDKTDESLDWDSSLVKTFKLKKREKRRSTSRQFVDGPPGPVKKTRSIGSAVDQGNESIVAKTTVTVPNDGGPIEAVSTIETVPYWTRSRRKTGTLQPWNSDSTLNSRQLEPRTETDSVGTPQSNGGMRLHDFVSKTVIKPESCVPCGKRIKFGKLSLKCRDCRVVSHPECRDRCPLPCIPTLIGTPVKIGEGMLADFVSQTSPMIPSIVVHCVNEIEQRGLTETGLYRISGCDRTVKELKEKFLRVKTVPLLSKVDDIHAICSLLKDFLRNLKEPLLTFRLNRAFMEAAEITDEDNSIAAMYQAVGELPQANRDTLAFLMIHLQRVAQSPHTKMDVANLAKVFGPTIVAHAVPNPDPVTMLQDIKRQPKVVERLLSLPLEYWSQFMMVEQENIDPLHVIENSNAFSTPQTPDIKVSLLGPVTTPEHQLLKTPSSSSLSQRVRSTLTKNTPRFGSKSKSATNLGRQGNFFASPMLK

[12] = growth suppression of PTEN-null colon cells, dose response, cell-based, HCT116 PTEN knockout (AID 1047); type: functional;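 also: HCT116 colon tumor cells with PTEN knocked out; cells exposed to compound for 60 hours before readout; potency for loss of cell viability measured by luminescence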
[13] = growth suppression of beta-catenin-knockout colon cells, dose response, cell-based, HCT116, human colon tumor (AID 1045); type: functional;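 also: HCT116 colon tumor cells with beta catenin knocked out; cells exposed to compound for 60 hours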
[14] = molecular target: Cytochrome P450 2C19 (Homo sapiens, UniProt P33261); assay: Cytochrome panel assay with activity outcomes. Panel member name: p450-cyp2c19 Compounds with AC50 equal or less than 10 uM are considered active; type: functional; conditions: read-out: AC50
[15] = molecular target: Cytochrome P450 2D6 (Homo sapiens, UniProt P10635);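 also: CYP2D6 member of a cytochrome P450 panel assay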
[16] = molecular target: T5, Cytochrome P450 1A2 (Homo sapiens, UniProt P05177);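 also: PubChem cytochrome P450 panel assay, CYP1A2 panel member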
T5 sequence (P05177 whole entry): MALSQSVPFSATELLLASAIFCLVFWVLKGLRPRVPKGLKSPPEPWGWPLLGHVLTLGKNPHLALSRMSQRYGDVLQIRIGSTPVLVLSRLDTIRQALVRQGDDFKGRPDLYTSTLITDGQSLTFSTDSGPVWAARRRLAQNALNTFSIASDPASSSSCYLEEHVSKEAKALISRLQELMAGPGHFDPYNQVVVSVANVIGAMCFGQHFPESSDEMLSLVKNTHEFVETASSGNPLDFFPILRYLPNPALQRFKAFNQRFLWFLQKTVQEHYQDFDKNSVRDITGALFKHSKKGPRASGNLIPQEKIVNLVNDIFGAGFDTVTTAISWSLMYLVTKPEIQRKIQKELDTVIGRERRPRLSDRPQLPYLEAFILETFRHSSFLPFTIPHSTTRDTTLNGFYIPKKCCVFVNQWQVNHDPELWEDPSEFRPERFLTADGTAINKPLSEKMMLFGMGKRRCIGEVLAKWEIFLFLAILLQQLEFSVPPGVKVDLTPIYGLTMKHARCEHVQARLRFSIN

[17] = molecular target: Voltage-gated inwardly rectifying potassium channel KCNH2 (Homo sapiens, UniProt Q12809); conditions: Potency;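 also: confirmatory quantitative high-throughput screen measuring inhibition of hERG channel activity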
[18] = molecular target: Cytochrome P450 3A4 (Homo sapiens, UniProt P08684);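 also: CYP3A4 tested as one member of a cytochrome P450 panel screen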
Cytochrome P450 3A4, sequence (P08684 whole entry): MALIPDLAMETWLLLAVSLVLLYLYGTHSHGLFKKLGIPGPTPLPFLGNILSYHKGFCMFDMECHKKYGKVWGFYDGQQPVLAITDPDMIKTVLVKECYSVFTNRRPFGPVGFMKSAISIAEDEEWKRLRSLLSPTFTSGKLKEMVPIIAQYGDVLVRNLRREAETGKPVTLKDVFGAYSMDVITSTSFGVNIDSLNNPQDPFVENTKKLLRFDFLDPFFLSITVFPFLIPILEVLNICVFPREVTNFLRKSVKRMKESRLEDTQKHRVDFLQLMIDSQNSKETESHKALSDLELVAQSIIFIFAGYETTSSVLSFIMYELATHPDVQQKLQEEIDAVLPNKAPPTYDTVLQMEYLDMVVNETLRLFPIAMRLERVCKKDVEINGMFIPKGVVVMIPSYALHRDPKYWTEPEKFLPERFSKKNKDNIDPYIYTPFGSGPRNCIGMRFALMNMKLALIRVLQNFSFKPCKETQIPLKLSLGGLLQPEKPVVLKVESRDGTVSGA

Large T antigen, sequence (P03070 whole entry): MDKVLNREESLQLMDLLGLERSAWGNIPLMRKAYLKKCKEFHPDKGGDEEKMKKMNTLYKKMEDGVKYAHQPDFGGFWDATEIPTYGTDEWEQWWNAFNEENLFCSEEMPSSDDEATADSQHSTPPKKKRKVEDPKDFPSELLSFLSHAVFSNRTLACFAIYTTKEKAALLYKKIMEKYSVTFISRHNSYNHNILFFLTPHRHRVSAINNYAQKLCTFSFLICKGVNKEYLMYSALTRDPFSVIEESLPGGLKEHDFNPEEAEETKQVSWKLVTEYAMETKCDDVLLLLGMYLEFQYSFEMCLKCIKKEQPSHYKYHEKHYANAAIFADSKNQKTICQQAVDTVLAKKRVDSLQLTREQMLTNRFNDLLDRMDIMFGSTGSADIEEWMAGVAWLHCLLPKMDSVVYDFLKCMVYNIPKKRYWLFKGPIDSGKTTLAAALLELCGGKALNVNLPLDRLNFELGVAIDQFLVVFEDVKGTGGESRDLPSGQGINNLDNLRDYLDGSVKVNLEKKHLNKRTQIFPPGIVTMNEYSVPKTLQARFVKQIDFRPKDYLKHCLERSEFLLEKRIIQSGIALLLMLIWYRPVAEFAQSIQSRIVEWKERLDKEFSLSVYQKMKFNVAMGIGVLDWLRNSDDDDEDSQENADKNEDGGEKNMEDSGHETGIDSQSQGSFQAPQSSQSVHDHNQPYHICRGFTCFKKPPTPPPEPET
Voltage-gated inwardly rectifying potassium channel KCNH2, sequence (Q12809 whole entry): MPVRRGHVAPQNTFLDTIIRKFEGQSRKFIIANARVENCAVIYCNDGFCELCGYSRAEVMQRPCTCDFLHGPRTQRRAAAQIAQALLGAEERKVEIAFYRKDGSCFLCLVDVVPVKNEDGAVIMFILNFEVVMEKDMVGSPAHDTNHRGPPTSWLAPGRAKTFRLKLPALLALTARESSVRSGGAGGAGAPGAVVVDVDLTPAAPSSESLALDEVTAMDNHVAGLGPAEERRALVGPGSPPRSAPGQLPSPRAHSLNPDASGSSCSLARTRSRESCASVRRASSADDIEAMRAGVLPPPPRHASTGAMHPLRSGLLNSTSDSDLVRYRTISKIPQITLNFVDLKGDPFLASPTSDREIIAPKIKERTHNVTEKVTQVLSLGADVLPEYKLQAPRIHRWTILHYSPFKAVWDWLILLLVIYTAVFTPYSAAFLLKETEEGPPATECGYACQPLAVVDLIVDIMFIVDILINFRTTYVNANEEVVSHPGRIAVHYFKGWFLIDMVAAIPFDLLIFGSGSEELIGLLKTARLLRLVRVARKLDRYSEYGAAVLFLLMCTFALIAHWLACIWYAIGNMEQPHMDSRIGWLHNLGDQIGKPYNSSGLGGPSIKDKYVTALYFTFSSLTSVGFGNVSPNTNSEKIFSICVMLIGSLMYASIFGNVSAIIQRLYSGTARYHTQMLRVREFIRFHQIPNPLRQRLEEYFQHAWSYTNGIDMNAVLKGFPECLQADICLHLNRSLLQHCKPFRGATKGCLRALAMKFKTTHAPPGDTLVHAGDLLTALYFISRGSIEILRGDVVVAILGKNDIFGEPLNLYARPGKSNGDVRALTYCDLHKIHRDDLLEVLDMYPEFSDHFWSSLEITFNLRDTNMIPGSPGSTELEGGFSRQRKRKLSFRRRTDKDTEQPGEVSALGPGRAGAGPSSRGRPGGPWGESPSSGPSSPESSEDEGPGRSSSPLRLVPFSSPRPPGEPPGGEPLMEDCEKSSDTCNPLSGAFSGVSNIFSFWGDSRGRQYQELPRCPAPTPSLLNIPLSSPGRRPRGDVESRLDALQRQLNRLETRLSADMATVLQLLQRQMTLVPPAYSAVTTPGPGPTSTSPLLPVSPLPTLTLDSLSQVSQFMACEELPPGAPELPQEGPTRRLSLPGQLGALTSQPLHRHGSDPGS
Cytochrome P450 2D6, sequence (P10635 whole entry): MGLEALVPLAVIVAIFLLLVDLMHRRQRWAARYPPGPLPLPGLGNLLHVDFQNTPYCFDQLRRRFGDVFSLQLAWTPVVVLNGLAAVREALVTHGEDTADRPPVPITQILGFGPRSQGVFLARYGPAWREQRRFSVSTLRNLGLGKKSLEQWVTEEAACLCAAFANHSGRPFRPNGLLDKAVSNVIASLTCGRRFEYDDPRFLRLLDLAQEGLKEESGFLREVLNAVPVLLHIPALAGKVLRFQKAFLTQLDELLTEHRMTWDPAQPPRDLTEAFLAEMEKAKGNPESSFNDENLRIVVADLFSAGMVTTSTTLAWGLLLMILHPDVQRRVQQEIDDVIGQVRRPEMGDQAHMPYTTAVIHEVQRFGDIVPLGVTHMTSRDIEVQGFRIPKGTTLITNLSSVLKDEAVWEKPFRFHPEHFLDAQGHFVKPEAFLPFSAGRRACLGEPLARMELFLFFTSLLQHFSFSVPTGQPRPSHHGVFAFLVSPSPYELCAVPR
Protein Wnt-3a, sequence (P27467 whole entry): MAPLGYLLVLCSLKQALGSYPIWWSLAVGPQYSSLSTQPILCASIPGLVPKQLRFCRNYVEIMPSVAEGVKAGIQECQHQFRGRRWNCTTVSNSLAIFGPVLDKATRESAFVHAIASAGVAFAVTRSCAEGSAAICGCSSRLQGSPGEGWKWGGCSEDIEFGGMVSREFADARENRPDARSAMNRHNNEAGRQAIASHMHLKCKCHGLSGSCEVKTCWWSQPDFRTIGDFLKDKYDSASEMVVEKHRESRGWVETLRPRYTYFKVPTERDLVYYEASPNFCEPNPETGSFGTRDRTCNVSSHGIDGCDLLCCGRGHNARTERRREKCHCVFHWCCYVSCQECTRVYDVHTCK
Cytochrome P450 2C19, sequence (P33261 whole entry): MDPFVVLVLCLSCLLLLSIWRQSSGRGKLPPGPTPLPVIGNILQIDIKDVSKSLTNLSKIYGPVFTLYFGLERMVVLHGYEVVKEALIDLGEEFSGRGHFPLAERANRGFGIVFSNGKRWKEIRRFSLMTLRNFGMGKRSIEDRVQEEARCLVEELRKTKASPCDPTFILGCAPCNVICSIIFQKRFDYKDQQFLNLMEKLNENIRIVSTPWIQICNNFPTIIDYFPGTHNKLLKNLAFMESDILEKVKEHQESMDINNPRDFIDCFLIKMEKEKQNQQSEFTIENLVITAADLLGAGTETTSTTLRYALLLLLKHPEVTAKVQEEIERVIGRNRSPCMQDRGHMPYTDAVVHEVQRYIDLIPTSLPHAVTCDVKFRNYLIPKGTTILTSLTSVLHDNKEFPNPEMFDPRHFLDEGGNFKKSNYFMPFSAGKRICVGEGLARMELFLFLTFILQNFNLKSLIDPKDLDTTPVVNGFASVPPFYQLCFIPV
Mitogen-activated protein kinase 10, sequence (P53779 whole entry): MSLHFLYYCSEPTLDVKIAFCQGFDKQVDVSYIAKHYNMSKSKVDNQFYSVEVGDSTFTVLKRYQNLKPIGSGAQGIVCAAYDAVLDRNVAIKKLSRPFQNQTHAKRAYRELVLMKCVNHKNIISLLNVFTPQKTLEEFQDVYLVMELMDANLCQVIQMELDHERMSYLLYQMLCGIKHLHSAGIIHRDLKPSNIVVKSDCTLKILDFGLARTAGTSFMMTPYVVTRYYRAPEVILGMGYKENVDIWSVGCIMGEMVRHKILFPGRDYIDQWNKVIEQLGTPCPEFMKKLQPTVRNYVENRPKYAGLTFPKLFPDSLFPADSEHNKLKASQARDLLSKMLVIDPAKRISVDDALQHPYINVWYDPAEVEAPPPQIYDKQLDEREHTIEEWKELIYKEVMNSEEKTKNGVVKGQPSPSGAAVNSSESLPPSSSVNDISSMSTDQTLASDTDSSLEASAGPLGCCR

Compound: CC[N+](C)(CC)CCC(c1ccccc1)C1CCCCC1 (configuration not stated)
AC50 [1]: 233 µM (active)
IC50 [2]: 4.65 µM (active)
IC50 [3]: 39 µM (inactive)

Compound: NC(=O)c1cc(Br)cc2c3c([nH]c12)CCCC3
IC50 [6]: 12.5 µM (not active)
AC50 [4]: 9320 nM (active)

Compound: CCOC(=O)CSc1nc2cc3c(cc2cc1C#N)OCCO3
IC50 [7]: > 67.5 µM (inactive)
IC50 [8]: > 67.5 µM (inactive)

Compound: O=C(CC(O)CCc1ccccc1)c1ccc(O)cc1 (configuration not stated)
IC50 [7]: > 67.5 µM (inactive)
IC50 [8]: > 67.5 µM (inactive)

Compound: O=C1OCC/C1=C\c1ccc(O)cc1
IC50 [10]: 17.4 µM (active)
AC50 [4]: 585 nM (active)
IC50 [11]: 28.9 µM (active)

Compound: Cn1nc(-c2ccc(Cl)cc2)c2cc(C(=O)NCCN3CCOCC3)sc21
EC50 [12]: 22.4 µM (active)
EC50 [13]: 17 µM (active)
IC50 [7]: > 67.5 µM (inactive)
IC50 [8]: > 67.5 µM (inactive)

Now from value to compound, other results behind:

AC50 [4]: 265 nM (active)
Compound: CS(=O)(=O)Nc1ccc(-c2cc(/C=C3\SC(N)=NC3=O)cnc2O)cc1

IC50 [2]: 5.43 µM (active)
Compound: COc1ccc(NC(=O)/C(C#N)=C/c2ccc(Br)o2)cc1
CC50 [5]: 27.4 µM (active)

AC50 [4]: 1040 nM (active)
Compound: CCN1C(=O)/C(=C2/Sc3ccccc3N2CC)S/C1=N\c1nc[nH]n1

IC50 [9]: 2.54 µM (active)
Compound: O=c1c(-c2ccco2)nc2ccccc2n1C(CCc1ccccc1)c1nc2ccccc2[nH]1 (configuration not stated)

IC50 [9]: 8.03 µM (active)
Compound: CC(C)(C)NC(=O)C(c1ccncc1)n1c(=O)c(-c2ccco2)nc2ccccc21 (configuration not stated)

AC50 [14]: 15.8 µM (inconclusive)
AC50 [15]: 39.8 µM (inconclusive)
AC50 [16]: 25.1 µM (inconclusive)
AC50 [18]: inconclusive
Compound: C[C@H](Cc1ccc(O)c(O)c1)[C@@H](C)Cc1ccc(O)c(O)c1 [MASOPROCOL]
AC50 [17]: 35.5 µM (inconclusive)
